This note sets out measurements from article PMC8113231 (Nature Communications, 2021).

Where a SMILES comes first, the peptide text is derived from it. Bridges are numbered along the chain shown (N, C = ends).

Test [1] relates to A/duck/Hokkaido/Vac-3/07 (H5N1/Vac-3). In words: microbe, parasite or virus in culture. The following applies: Influenza A virus, H5N1, MDCK; 48–72 h; read-out: EC50, plaque reduction, H5N1/Vac-3. Type of test: cell-based, influenza A virus.
In test [2] the test system is A/whooper swan/Mongolia/3/05 (H5N1/Mongolia; clade 2.2). In words: microbe, parasite or virus in culture. The following applies: Influenza A virus, H5N1, MDCK; 48–72 h; read-out: EC50, plaque reduction, H5N1/Mongolia (clade 2.2). In kind it is cell-based.
Test [3] relates to A/whooper swan/Hokkaido/1/08 (H5N1/Hokkaido; clade 2.3.2.1). In words: microbe, parasite or virus in culture. Type of test: cell-based. As to conditions: Influenza A virus, H5N1, MDCK; 48–72 h; read-out: EC50, plaque reduction, H5N1/Hokkaido (clade 2.3.2.1).
For test [4], the system named is A/Puerto Rico/8/34 (H1N1/PR8). In words: microbe, parasite or virus in culture. Type of test: cell-based. As to conditions: Influenza A virus, MDCK; 48–72 h; read-out: EC50, plaque reduction, H1N1/PR8.
Test [5] concerns A/Tokyo/2619/09 (H1N1/Tokyo2619). In words: microbe, parasite or virus in culture. As to conditions: Influenza A virus, H1N1, MDCK; 48–72 h; read-out: EC50, plaque reduction, H1N1/Tokyo2619. In kind it is cell-based.
Test [6] deals with A/Narita/1/09 (H1N1/Narita). Nature of the test: microbe, parasite or virus in culture. Type of test: cell-based. The following applies: Influenza A virus, H1N1, MDCK; 48–72 h; read-out: EC50, plaque reduction, H1N1/Narita.
For test [7], the system named is A/Adachi/2/57 (H2N2). In words: microbe, parasite or virus in culture. In kind it is cell-based. As to conditions: Influenza A virus, H2N2, MDCK; 48–72 h; read-out: EC50, plaque reduction, H2N2/Adachi.
The subject of test [8] is A/whooper swan/Hokkaido/1/08 (H5N1). Also noted: species or system BALB/c mice. The following applies: mouse, in vivo.
The test system of test [9] is H5N1/Vac-3. In kind it is cell-based, influenza A virus.
The test system of test [10] is H1N1/Tokyo2619. Type of test: cell-based, influenza A virus.

As to `CC(=O)N[C@H]1[C@H]([C@H](O)[C@H](O)CO)OC(C(=O)O)=C[C@@H]1N=C(N)N` [zanamivir], the EC50 in test [1] is 42 nM; in [2] it was less than 10 nM; in test [3], less than 10 nM; in [4], 115 nM; in test [5], more than 1000 nM; in test [6], more than 1000 nM. Also, the EC50 in test [7] worked out at 60 nM. For the same compound, the “Survival outcome, delayed administration” value in [8] was “all mice in the zanamivir-treated group died”.
Consider `CC[C@H](C)[C@@H]1NC(=O)[C@H](C)NC(=O)[C@H](Cc2c[nH]c3ccccc23)NC(=O)[C@H](CCC(=O)O)NC(=O)[C@H](CC(C)C)NC(=O)[C@@H]2CCCN2C(=O)[C@H](Cc2ccccc2)NC(=O)[C@H](CCCCN)NC(=O)[C@H](Cc2c[nH]c3ccccc23)NC(=O)[C@H](CC(N)=O)NC(=O)[C@H](C(C)C)NC(=O)CSC[C@@H](C(=O)NCC(N)=O)NC(=O)[C@H](Cc2ccc(O)cc2)NC(=O)[C@H](CCCNC(=N)N)NC1=O` [iHA-12sf, reference compound] ({CH2CO}-VNWKFPLEWAIRYCG-NH2; thioether N-14), for which the “H5N1/Vac-3 virus-mediated RBC membrane fusion” value in [9] was “did not reduce RBC membrane fusion”. The “H1N1/Tokyo2619 virus-mediated RBC membrane fusion” value in test [10] is “did not reduce RBC membrane fusion”.
